# In publication PMC3828125 (Biochemistry, 2011):
# Where two headings read alike, the source gives them in different places. Marks after values point to notes of the source that are not given here.
# Legend:
# [1] = biological target: recombinant human cytochrome P450 3A4 (CYP3A4 NF14 construct) (human) (UniProt P08684); experiment: SEC
# CYP3A4 [2] = biological target: T1, CYP3A4 (Homo sapiens, UniProt P08684, S18F)
# CYP3A4 [3] = biological target: T1, CYP3A4; conditions: read-out: experimental KM for 1′-OH-MDZ formation; ref [23], [86]–[88]; cited from earlier work
# CYP3A4 [4] = biological target: T1, CYP3A4; experiment: Absorbance difference titrations of recombinant CYP3A4 with MDZ and CBZ
# CYP3A4 [5] = biological target: CYP3A4 (Homo sapiens, UniProt P08684); conditions: for Km at 2 min: human, fit to eq 1
# CYP3A4 [6] = biological target: T1, CYP3A4; remark: listed apart in the source
# CYP3A4 [7] = biological target: T1, CYP3A4; conditions: read-out: Km of 10,11-epoxide formation; ref [26], [89]; cited from earlier work
# [8] = 260 μM Midazolam alone, 1 μM CYP3A4
# [9] = 260 μM Midazolam alone, 1 μM CYP3A4, eq 6
# [10] = 260 μM Midazolam with 260 μM Carbamazepine bound simultaneously, 1 μM CYP3A4
# [11] = 260 μM Carbamazepine alone, 1 μM CYP3A4
# [12] = 260 μM Carbamazepine alone, 1 μM CYP3A4, chemical equivalence (eq 7)
# [13] = 260 μM Carbamazepine alone, 1 μM CYP3A4, eq 6
compound,measurement,setting,value
recombinant human cytochrome P450 3A4 (CYP3A4 NF14 construct) (from UniProt P08684 1-503) (enzyme),stoichiometry N,[1],4
"Cc1ncc2n1-c1ccc(Cl)cc1C(c1ccccc1F)=NC2 [MDZ, midazolam]",%HS of CYP3A4 heme,"CYP3A4 [2]; 260 μM MDZ and 260 μM CBZ together, 1 μM CYP3A4",55%
same,%HS of CYP3A4 heme,"CYP3A4 [2]; 260 μM MDZ, 1 μM CYP3A4 (33% HS without ligands)",70%
same,Km,CYP3A4 [3],5 to 11 µM
same,Δε at 100 μM MDZ in the titration curve,CYP3A4 [4]; 120 μM CBZ,~ 0.015 μM^−1 cm^−1
same,Amax of the MDZ titration curve,CYP3A4 [4]; absence of CBZ,0.0342 ± 0.0083 µM⁻¹ cm⁻¹
same,Kd,"CYP3A4 [4]; human, pH 7.4",70.6 ± 29 µM
same,Δε at 100 μM MDZ in the titration curve,CYP3A4 [4]; no CBZ,~ 0.025 μM^−1 cm^−1
same,[MDZ] at which velocity of 1′-OH-MDZ formation reaches a maximum,CYP3A4 [5]; absence of CBZ,25 µM
same,Km at 2 min,"CYP3A4 [5]; pH 7.4, Km of 1′-OH-MDZ formation, presence of 240 μM CBZ",12.5 ± 2.1 µM
same,Km at 2 min,"CYP3A4 [5]; pH 7.4, Km of 4-OH-MDZ formation, absence of CBZ",47.5 ± 6.8 µM
same,Km at 2 min,"CYP3A4 [5]; pH 7.4, Km of 4-OH-MDZ formation, presence of 240 μM CBZ",57.7 ± 2.1 µM
same,"RFe2+-CO, proton peak 1′",CYP3A4 [6]; [8],1.53 ± 0.04 s⁻¹
same,"RFe2+-CO, proton peak 3",CYP3A4 [6]; [8],1.45 ± 0.18 s⁻¹
same,"RFe2+-CO, proton peak 3F",CYP3A4 [6]; [8],1.46 ± 0.20 s⁻¹
same,"RFe2+-CO, proton peak 4F",CYP3A4 [6]; [8],1.91 ± 0.07 s⁻¹
same,"RFe2+-CO, proton peak 5F",CYP3A4 [6]; [8],1.72 ± 0.10 s⁻¹
same,"RFe2+-CO, proton peak 6F",CYP3A4 [6]; [8],1.83 ± 0.11 s⁻¹
same,"RFe2+-CO, proton peak 7",CYP3A4 [6]; [8],1.67 ± 0.09 s⁻¹
same,"RFe2+-CO, proton peak 9",CYP3A4 [6]; [8],1.65 ± 0.12 s⁻¹
same,"RFe2+-CO, proton peak 10",CYP3A4 [6]; [8],1.81 ± 0.11 s⁻¹
same,"RFe3+, proton peak 1′",CYP3A4 [6]; [8],2.18 ± 0.02 s⁻¹
same,"RFe3+, proton peak 3",CYP3A4 [6]; [8],1.88 ± 0.04 s⁻¹
same,"RFe3+, proton peak 3F",CYP3A4 [6]; [8],1.60 ± 0.07 s⁻¹
same,"RFe3+, proton peak 4F",CYP3A4 [6]; [8],1.85 ± 0.04 s⁻¹
same,"RFe3+, proton peak 5F",CYP3A4 [6]; [8],2.17 ± 0.06 s⁻¹
same,"RFe3+, proton peak 6F",CYP3A4 [6]; [8],1.88 ± 0.05 s⁻¹
same,"RFe3+, proton peak 7",CYP3A4 [6]; [8],1.81 ± 0.05 s⁻¹
same,"RFe3+, proton peak 9",CYP3A4 [6]; [8],2.97 ± 0.17 s⁻¹
same,"RFe3+, proton peak 10",CYP3A4 [6]; [8],2.85 ± 0.06 s⁻¹
same,"RP, proton peak 1′",CYP3A4 [6]; [8],0.65 ± 0.05 s⁻¹
same,"RP, proton peak 3",CYP3A4 [6]; [8],0.43 ± 0.18 s⁻¹
same,"RP, proton peak 3F",CYP3A4 [6]; [8],0.14 ± 0.21 s⁻¹
same,"RP, proton peak 4F",CYP3A4 [6]; [8],-0.06 ± 0.08 s⁻¹
same,"RP, proton peak 5F",CYP3A4 [6]; [8],0.45 ± 0.11 s⁻¹
same,"RP, proton peak 6F",CYP3A4 [6]; [8],0.05 ± 0.12 s⁻¹
same,"RP, proton peak 7",CYP3A4 [6]; [8],0.14 ± 0.10 s⁻¹
same,"RP, proton peak 9",CYP3A4 [6]; [8],1.31 ± 0.20 s⁻¹
same,"RP, proton peak 10",CYP3A4 [6]; [8],1.03 ± 0.12 s⁻¹
same,"rmin, proton peak 4F","CYP3A4 [6]; 260 μM Midazolam alone, 1 μM CYP3A4, calculated using the highest RP",17.02 ^c Å
same,"rmin, proton peak 1′","CYP3A4 [6]; 260 μM Midazolam alone, 1 μM CYP3A4, chemical equivalence (eq 7)",7.62±0.18 ^b Å
same,"rapp, proton peak 1′",CYP3A4 [6]; [9],9.15±0.22 Å
same,"rapp, proton peak 3",CYP3A4 [6]; [9],9.79±0.71 Å
same,"rapp, proton peak 3F",CYP3A4 [6]; [9],11.84±2.95 Å
same,"rapp, proton peak 5F",CYP3A4 [6]; [9],9.75±0.46 Å
same,"rapp, proton peak 6F",CYP3A4 [6]; [9],14.13±6.01 Å
same,"rapp, proton peak 7",CYP3A4 [6]; [9],11.83±1.50 Å
same,"rapp, proton peak 9",CYP3A4 [6]; [9],8.14±0.27 Å
same,"rapp, proton peak 10",CYP3A4 [6]; [9],8.47±0.24 Å
same,"RFe2+-CO, proton peak 1′",CYP3A4 [6]; [10],1.57 ± 0.04 s⁻¹
same,"RFe2+-CO, proton peak 3",CYP3A4 [6]; [10],1.44 ± 0.12 s⁻¹
same,"RFe2+-CO, proton peak 3F",CYP3A4 [6]; [10],1.54 ± 0.18 s⁻¹
same,"RFe2+-CO, proton peak 4F",CYP3A4 [6]; [10],~ 1 sec^−1
same,"RFe2+-CO, proton peak 5F",CYP3A4 [6]; [10],1.16 ± 0.19 s⁻¹
same,"RFe2+-CO, proton peak 6F",CYP3A4 [6]; [10],1.76 ± 0.13 s⁻¹
same,"RFe2+-CO, proton peak 7",CYP3A4 [6]; [10],1.41 ± 0.06 s⁻¹
same,"RFe2+-CO, proton peak 9",CYP3A4 [6]; [10],1.26 ± 0.07 s⁻¹
same,"RFe2+-CO, proton peak 10",CYP3A4 [6]; [10],1.76 ± 0.09 s⁻¹
same,"RFe3+, proton peak 1′",CYP3A4 [6]; [10],2.13 ± 0.04 s⁻¹
same,"RFe3+, proton peak 3",CYP3A4 [6]; [10],1.82 ± 0.06 s⁻¹
same,"RFe3+, proton peak 3F",CYP3A4 [6]; [10],2.04 ± 0.05 s⁻¹
same,"RFe3+, proton peak 4F",CYP3A4 [6]; [10],1.08 ± 0.05 s⁻¹
same,"RFe3+, proton peak 5F",CYP3A4 [6]; [10],1.05 ± 0.04 s⁻¹
same,"RFe3+, proton peak 6F",CYP3A4 [6]; [10],1.69 ± 0.24 s⁻¹
same,"RFe3+, proton peak 7",CYP3A4 [6]; [10],1.70 ± 0.05 s⁻¹
same,"RFe3+, proton peak 9",CYP3A4 [6]; [10],2.37 ± 0.07 s⁻¹
same,"RFe3+, proton peak 10",CYP3A4 [6]; [10],2.69 ± 0.06 s⁻¹
same,"RP, proton peak 1′",CYP3A4 [6]; [10],0.56 ± 0.06 s⁻¹
same,"RP, proton peak 3",CYP3A4 [6]; [10],0.38 ± 0.13 s⁻¹
same,"RP, proton peak 3F",CYP3A4 [6]; [10],0.50 ± 0.19 s⁻¹
same,"RP, proton peak 4F",CYP3A4 [6]; [10],0.07 ± 0.12 s⁻¹
same,"RP, proton peak 5F",CYP3A4 [6]; [10],-0.11 ± 0.19 s⁻¹
same,"RP, proton peak 6F",CYP3A4 [6]; [10],-0.07 ± 0.27 s⁻¹
same,"RP, proton peak 7",CYP3A4 [6]; [10],0.29 ± 0.08 s⁻¹
same,"RP, proton peak 9",CYP3A4 [6]; [10],1.11 ± 0.10 s⁻¹
same,"RP, proton peak 10",CYP3A4 [6]; [10],0.93 ± 0.11 s⁻¹
same,average RP of the fluorophenyl protons,CYP3A4 [6]; MDZ alone,0.15 s⁻¹
same,average distance of chlorophenyl group from heme,"CYP3A4 [6]; MDZ alone, calculated from RPs",~ 10 Å
same,average distance of fluorophenyl group from heme,"CYP3A4 [6]; MDZ alone, calculated from RPs",~ 13 Å
same,distance of 1′-CH3 from heme,"CYP3A4 [6]; MDZ alone, depending on the orientation",7.6–9.2 Å
same,average RP of the fluorophenyl protons,CYP3A4 [6]; MDZ in the presence of CBZ,0.1 s⁻¹
"NC(=O)N1c2ccccc2C=Cc2ccccc21 [CBZ, carbamazepine]",%HS of CYP3A4 heme,"CYP3A4 [2]; 260 μM CBZ, 1 μM CYP3A4 (33% HS without ligands)",34%
same,Amax of the CBZ titration curve,"CYP3A4 [4]; CBZ alone, fit to eq 3",0.0049 ± 0.0007 µM⁻¹ cm⁻¹
same,Km,CYP3A4 [7],119 to 442 µM
same,effect of CBZ on 1′-OH-MDZ and 4-OH-MDZ formation,"CYP3A4 [5]; low [MDZ], 240 μM CBZ",competitively inhibit
same,effect of CBZ on 1′-OH-MDZ formation,"CYP3A4 [5]; saturating CBZ (240 μM), near saturating MDZ",only partially inhibited
same,"RFe2+-CO, proton peak aa′",CYP3A4 [6]; [11],1.67 ± 0.11 s⁻¹
same,"RFe2+-CO, proton peak bb′",CYP3A4 [6]; [11],1.54 ± 0.09 s⁻¹
same,"RFe2+-CO, proton peak cc′",CYP3A4 [6]; [11],1.59 ± 0.10 s⁻¹
same,"RFe2+-CO, proton peak dd′",CYP3A4 [6]; [11],1.47 ± 0.09 s⁻¹
same,"RFe2+-CO, proton peak ee′",CYP3A4 [6]; [11],1.52 ± 0.09 s⁻¹
same,"RFe3+, proton peak aa′",CYP3A4 [6]; [11],2.44 ± 0.24 s⁻¹
same,"RFe3+, proton peak bb′",CYP3A4 [6]; [11],2.56 ± 0.33 s⁻¹
same,"RFe3+, proton peak cc′",CYP3A4 [6]; [11],2.38 ± 0.23 s⁻¹
same,"RFe3+, proton peak dd′",CYP3A4 [6]; [11],2.50 ± 0.25 s⁻¹
same,"RFe3+, proton peak ee′",CYP3A4 [6]; [11],2.22 ± 0.20 s⁻¹
same,"RP, proton peak aa′",CYP3A4 [6]; [11],0.77 ± 0.26 s⁻¹
same,"RP, proton peak bb′",CYP3A4 [6]; [11],1.03 ± 0.34 s⁻¹
same,"RP, proton peak cc′",CYP3A4 [6]; [11],0.79 ± 0.25 s⁻¹
same,"RP, proton peak dd′",CYP3A4 [6]; [11],1.03 ± 0.26 s⁻¹
same,"RP, proton peak ee′",CYP3A4 [6]; [11],0.71 ± 0.22 s⁻¹
same,"rmin, proton peak aa′",CYP3A4 [6]; [12],7.02±0.40 ^b Å
same,"rmin, proton peak bb′",CYP3A4 [6]; [12],6.69±0.38 ^b Å
same,"rmin, proton peak cc′",CYP3A4 [6]; [12],6.98±0.37 ^b Å
same,"rmin, proton peak dd′",CYP3A4 [6]; [12],6.69±0.29 ^b Å
same,"rmin, proton peak ee′",CYP3A4 [6]; [12],7.12±0.37 ^b Å
same,"rapp, proton peak bb′",CYP3A4 [6]; [13],7.51±0.42 Å
same,"rapp, proton peak cc′",CYP3A4 [6]; [13],7.84±0.41 Å
same,"rapp, proton peak dd′",CYP3A4 [6]; [13],7.51±0.33 Å
same,"rapp, proton peak ee′",CYP3A4 [6]; [13],7.99±0.41 Å
same,calculated proton-heme distances on average,CYP3A4 [6]; CBZ alone,7–8 Å
same,variation in the proton RPs,CYP3A4 [6]; CBZ alone,30%
same,RP of CBZ protons,CYP3A4 [6]; in the presence of MDZ,< 0.04
